Test results reported in patent publication US11981658B2, “Substituted aminopyridine compounds as EGFR inhibitors” (YUHAN CORPORATION, priority 2021, dated 2024).
Like-named read-outs stand apart in the source and are kept apart here.

Assays:
EGFR Del19/T790M/C797S = EGFR Del19/T790M/C797S (Homo sapiens, UniProt P00533, C797S/DEL746-750/T790M); assay: Biochemical EGFR kinase inhibition assay (Lance Ultra TR-FRET), triple mutant del19/T790M/C797S
In short: (§1)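 Step 1: compound in kinase buffer, 0.003–10 μM. Step 2: kinase reaction 1 h at room temperature. Step 4: TR-FRET read at 615/665 nm; IC50 calculated.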

EGFR L858R/T790M/C797S = EGFR L858R/T790M/C797S (Homo sapiens, UniProt P00533, C797S/L858R/T790M); assay: Biochemical EGFR kinase inhibition assay (Lance Ultra TR-FRET), triple mutant L858R/T790M/C797S
In short: as §1

EGFR Del19/C797S = EGFR Del19/C797S (Homo sapiens, UniProt P00533, C797S/DEL746-750); assay: Biochemical EGFR kinase inhibition assay (Lance Ultra TR-FRET), double mutant del19/C797S
Sequence of EGFR Del19/C797S (P00533 with tags, fused parts or gaps DEL746-750/C797S): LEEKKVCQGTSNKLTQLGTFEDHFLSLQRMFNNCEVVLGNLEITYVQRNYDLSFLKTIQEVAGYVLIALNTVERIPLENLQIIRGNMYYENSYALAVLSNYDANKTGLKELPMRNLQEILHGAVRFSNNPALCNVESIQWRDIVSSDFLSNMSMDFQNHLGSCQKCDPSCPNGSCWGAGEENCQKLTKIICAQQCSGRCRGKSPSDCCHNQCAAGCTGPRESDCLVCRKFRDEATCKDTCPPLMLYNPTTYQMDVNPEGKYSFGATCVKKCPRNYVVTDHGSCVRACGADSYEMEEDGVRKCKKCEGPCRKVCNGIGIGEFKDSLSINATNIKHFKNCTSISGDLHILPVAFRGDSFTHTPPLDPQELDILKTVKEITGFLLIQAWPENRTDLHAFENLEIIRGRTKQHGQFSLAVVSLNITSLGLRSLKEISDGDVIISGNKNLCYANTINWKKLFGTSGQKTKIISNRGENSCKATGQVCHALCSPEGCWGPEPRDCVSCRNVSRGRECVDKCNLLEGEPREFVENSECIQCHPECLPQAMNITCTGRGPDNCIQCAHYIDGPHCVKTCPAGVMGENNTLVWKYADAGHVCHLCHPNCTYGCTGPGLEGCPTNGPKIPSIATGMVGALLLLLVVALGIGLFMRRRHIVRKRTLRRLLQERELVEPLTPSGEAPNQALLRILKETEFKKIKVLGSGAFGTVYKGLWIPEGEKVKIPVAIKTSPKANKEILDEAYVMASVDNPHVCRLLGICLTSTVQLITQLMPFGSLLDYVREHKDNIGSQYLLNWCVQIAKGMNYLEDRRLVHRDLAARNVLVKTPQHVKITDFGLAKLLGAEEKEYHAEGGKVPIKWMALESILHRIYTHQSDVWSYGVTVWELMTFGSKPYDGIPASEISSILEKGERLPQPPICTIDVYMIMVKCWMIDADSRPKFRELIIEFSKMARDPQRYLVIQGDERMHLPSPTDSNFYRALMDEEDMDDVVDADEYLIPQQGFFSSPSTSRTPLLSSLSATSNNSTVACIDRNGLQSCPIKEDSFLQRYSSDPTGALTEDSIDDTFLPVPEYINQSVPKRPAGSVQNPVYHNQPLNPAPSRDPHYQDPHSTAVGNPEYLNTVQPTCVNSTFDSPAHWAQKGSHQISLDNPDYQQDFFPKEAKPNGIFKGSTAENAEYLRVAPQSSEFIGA
In short: as §1

EGFR L858R/C797S = EGFR L858R/C797S (Homo sapiens, UniProt P00533, C797S/L858R); assay: Biochemical EGFR kinase inhibition assay (Lance Ultra TR-FRET), double mutant L858R/C797S
Sequence of EGFR L858R/C797S (P00533 25-1210 C797S/L858R): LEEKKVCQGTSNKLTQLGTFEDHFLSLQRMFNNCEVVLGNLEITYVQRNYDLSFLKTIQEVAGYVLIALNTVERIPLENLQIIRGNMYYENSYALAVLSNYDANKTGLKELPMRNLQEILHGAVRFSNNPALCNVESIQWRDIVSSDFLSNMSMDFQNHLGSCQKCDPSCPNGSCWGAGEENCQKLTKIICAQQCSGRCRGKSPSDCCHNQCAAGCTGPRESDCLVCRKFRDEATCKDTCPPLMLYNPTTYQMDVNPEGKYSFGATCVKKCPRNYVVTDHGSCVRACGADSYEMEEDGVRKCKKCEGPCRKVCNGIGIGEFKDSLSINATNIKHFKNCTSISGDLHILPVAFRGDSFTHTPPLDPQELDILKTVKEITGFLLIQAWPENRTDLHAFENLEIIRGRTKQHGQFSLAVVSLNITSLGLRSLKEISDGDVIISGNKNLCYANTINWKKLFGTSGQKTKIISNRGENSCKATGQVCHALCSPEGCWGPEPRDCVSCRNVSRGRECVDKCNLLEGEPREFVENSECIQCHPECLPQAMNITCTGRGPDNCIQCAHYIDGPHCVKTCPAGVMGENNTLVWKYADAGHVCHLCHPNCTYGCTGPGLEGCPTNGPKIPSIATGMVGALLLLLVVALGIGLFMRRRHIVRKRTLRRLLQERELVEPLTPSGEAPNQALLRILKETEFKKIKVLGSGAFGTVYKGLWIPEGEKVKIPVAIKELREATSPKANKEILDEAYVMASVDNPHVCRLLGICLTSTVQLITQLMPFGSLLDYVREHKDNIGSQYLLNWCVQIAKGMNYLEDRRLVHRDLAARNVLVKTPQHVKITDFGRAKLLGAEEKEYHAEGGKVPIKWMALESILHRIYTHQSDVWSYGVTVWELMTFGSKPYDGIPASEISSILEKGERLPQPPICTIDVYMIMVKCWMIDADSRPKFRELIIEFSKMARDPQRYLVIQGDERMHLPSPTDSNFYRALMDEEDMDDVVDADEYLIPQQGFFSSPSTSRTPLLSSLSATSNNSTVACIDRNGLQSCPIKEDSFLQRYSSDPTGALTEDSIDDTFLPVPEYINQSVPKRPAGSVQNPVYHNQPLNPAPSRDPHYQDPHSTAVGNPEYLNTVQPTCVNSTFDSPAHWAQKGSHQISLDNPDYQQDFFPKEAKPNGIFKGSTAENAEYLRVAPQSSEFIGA
In short: as §1

EGFR wildtype (WT) = EGFR wildtype (WT) (Homo sapiens, UniProt P00533); assay: Biochemical EGFR kinase inhibition assay (Lance Ultra TR-FRET), wildtype
Sequence of EGFR wildtype (WT) (P00533 25-1210): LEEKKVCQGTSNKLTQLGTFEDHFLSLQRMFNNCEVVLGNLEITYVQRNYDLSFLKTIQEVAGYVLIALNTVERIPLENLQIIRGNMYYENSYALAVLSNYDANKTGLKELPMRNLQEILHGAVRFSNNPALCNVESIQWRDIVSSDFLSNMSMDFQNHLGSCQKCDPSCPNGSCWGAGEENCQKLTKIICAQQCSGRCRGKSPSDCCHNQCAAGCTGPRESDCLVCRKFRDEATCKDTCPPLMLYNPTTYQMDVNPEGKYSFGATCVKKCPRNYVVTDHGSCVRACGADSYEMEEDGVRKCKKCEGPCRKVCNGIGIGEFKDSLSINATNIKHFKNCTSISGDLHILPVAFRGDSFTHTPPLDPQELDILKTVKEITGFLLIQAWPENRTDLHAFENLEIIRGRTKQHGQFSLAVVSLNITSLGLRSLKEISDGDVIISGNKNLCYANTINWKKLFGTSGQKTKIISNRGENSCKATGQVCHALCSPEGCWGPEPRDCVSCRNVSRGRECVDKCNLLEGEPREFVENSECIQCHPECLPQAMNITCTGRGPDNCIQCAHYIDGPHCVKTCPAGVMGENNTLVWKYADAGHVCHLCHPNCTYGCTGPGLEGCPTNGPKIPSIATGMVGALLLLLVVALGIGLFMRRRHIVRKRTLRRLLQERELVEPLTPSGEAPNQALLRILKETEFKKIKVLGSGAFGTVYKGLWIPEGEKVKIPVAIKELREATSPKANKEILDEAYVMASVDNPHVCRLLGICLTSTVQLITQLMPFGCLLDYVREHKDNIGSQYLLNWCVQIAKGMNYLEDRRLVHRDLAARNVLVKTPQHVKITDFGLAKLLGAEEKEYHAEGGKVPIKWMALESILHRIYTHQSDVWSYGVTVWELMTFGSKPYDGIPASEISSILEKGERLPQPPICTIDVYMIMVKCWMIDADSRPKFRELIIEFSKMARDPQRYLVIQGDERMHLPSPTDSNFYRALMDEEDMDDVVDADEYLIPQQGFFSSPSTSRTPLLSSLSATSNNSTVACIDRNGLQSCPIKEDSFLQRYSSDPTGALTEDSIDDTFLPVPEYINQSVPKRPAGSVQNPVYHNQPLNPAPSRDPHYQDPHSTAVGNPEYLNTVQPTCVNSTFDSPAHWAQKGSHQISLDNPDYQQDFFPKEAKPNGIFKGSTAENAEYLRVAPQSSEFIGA
In short: as §1

[1] = IC50 Del19/T790M/C797S (nM), 100 μM ATP
[2] = Km ATP, read-out: IC50 Del19/T790M/C797S (nM), Km ATP
[3] = IC50 L858R/T790M/C797S (nM), 100 μM ATP
[4] = Km ATP, read-out: IC50 L858R/T790M/C797S (nM), Km ATP
[5] = IC50 Del19/C797S (nM), 100 μM ATP
[6] = Km ATP, read-out: IC50 Del19/C797S (nM), Km ATP
[7] = IC50 L858R/C797S (nM), 100 μM ATP
[8] = Km ATP, read-out: IC50 L858R/C797S (nM), Km ATP
[9] = Km ATP, read-out: IC50 WT (nM), Km ATP

Sequence of EGFR Del19/T790M/C797S (P00533 with tags, fused parts or gaps DEL746-750/T790M/C797S): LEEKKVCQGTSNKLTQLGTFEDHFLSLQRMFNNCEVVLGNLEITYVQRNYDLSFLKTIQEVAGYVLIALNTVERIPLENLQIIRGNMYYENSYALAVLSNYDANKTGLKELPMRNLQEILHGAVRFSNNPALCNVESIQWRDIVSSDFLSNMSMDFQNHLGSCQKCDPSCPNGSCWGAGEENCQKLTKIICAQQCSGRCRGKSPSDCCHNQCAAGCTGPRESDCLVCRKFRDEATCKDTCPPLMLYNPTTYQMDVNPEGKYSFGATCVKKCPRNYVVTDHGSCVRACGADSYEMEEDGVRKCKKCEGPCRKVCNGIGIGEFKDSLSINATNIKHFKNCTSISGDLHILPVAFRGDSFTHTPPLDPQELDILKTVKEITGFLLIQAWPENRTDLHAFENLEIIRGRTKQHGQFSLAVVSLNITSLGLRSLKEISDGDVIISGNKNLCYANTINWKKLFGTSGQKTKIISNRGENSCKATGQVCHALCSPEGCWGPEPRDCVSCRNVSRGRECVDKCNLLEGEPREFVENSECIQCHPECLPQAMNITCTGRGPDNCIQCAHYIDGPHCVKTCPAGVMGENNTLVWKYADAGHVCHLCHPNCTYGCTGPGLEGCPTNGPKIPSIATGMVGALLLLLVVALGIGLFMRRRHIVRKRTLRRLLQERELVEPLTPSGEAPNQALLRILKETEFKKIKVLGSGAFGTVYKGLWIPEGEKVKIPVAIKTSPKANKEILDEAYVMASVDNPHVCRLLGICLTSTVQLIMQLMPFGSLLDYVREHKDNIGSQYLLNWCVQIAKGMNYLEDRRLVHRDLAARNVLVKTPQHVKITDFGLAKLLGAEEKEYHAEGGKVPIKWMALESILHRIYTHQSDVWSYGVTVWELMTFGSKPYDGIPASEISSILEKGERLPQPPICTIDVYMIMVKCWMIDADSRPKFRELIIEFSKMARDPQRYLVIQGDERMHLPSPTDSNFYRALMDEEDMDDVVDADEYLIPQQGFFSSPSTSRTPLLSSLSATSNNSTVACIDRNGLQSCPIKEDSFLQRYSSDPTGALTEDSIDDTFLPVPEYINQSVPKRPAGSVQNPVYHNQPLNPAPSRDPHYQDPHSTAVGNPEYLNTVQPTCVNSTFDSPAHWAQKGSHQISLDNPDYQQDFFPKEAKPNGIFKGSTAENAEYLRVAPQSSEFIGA

Compound	IC50 (EGFR Del19/T790M/C797S; [1]) [nM]	IC50 (EGFR Del19/T790M/C797S; [2]) [nM]	IC50 (EGFR L858R/T790M/C797S; [3]) [nM]	IC50 (EGFR L858R/T790M/C797S; [4]) [nM]	IC50 (EGFR Del19/C797S; [5]) [nM]	IC50 (EGFR Del19/C797S; [6]) [nM]	IC50 (EGFR L858R/C797S; [7]) [nM]	IC50 (EGFR L858R/C797S; [8]) [nM]	IC50 (EGFR wildtype (WT); IC50 WT (nM), 100 μM ATP) [nM]	IC50 (EGFR wildtype (WT); [9]) [nM]
O=S(=O)(C1CC1)n1cc(-c2nccc(Nc3cc(N4C[C@@H]5[C@@H](CO)[C@@H]5C4)c(C#Cc4cnn(C(F)(F)F)c4)cn3)n2)cn1 [Example 331, ((1R,5S,6r)-3-(2-((2-(1-(Cyclopropylsulfonyl)-1H-pyrazol-4-yl)pyrimidin-4-yl)amino)-5-((1-(trifluoromethyl)-1H-pyrazol-4-yl)ethynyl)pyridin-4-yl)-3-azabicyclo[3.1.0]hexan-6-yl)methanol]	10.3	6.1	13.9	5	245	87.5	9130	173	> 10000	309
O=S(=O)(C1CC1)n1cc(-c2nccc(Nc3cc(N4[C@@H]5CC[C@H]4C[C@H](CO)C5)c(C#Cc4cnn(C(F)(F)F)c4)cn3)n2)cn1 [Example 332, ((1R,3s,5S)-8-(2-((2-(1-(Cyclopropylsulfonyl)-1H-pyrazol-4-yl)pyrimidin-4-yl)amino)-5-((1-(trifluoromethyl)-1H-pyrazol-4-yl)ethynyl)pyridin-4-yl)-8-azabicyclo[3.2.1]octan-3-yl)methanol]	23.9	18.9	21.6	7.8	1730	800	> 10000	845	> 10000	801
O=S(=O)(C1CC1)n1cc(-c2nccc(Nc3cc(N4C[C@H]5C[C@@]5(CO)C4)c(C#Cc4cnn(C(F)(F)F)c4)cn3)n2)cn1 [Example 333, ((1 S,5S)-3-(2-((2-(1-(Cyclopropylsulfonyl)-1H-pyrazol-4-yl)pyrimidin-4-yl)amino)-5-((1-(trifluoromethyl)-1H-pyrazol-4-yl)ethynyl)pyridin-4-yl)-3-azabicyclo[3.1.0]hexan-1-yl)methanol]	17.8	6.8	13	3.5	255	133	> 10000	245	> 10000	240
CC(=O)C1CCN(c2cc(Nc3ccnc(-c4cnn(S(=O)(=O)C5CC5)c4)n3)ncc2C#Cc2cnn(C(F)(F)F)c2)CC1 [Example 334, 1-(1-(2-((2-(1-(Cyclopropylsulfonyl)-1H-pyrazol-4-yl)pyrimidin-4-yl)amino)-5-((1-(trifluoromethyl)-1H-pyrazol-4-yl)ethynyl)pyridin-4-yl)piperidin-4-yl)ethan-1-one]	8	5.6	14.8	3.3	1840	239	7530	136	> 10000	276
CN(C)CCC1CCN(c2cc(Nc3ccnc(-c4cnn(S(=O)(=O)C5CC5)c4)n3)ncc2C#Cc2cnn(C(F)(F)F)c2)CC1 [Example 335, 2-(1-(Cyclopropylsulfonyl)-1H-pyrazol-4-yl)-N-(4-(4-(2-(dimethylamino)ethyl)piperidin-1-yl)-5-((1-(trifluoromethyl)-1H-pyrazol-4-yl)ethynyl)pyridin-2-yl)pyrimidin-4-amine]	0.4	0.4	0.4	0.2	2.3	2.1	53.4	4.3	4970	9.2
O=S(=O)(C1CC1)n1cc(-c2nccc(Nc3cc(N[C@H]4CC[C@@H](CO)CC4)c(C#Cc4cnn(C(F)(F)F)c4)cn3)n2)cn1 [Example 336, ((1s,4s)-4-((2-((2-(1-(Cyclopropylsulfonyl)-1H-pyrazol-4-yl)pyrimidin-4-yl)amino)-5-((1-(trifluoromethyl)-1H-pyrazol-4-yl)ethynyl)pyridin-4-yl)amino)cyclohexyl)methanol]	3.9	2	2.4	1.3	38.2	26.1	1750	50.1	> 10000	295
CC(C)(O)[C@H]1CC[C@@H](Nc2cc(Nc3ccnc(-c4cnn(S(=O)(=O)C5CC5)c4)n3)ncc2C#Cc2cnn(C(F)(F)F)c2)CC1 [Example 337, 2-((1s,4s)-4-((2-((2-(1-(Cyclopropylsulfonyl)-1H-pyrazol-4-yl)pyrimidin-4-yl)amino)-5-((1-(trifluoromethyl)-1H-pyrazol-4-yl)ethynyl)pyridin-4-yl)amino)cyclohexyl)propan-2-ol]	8	6	10.9	3.3	325	197	> 10000	–	> 10000	–
O=S(=O)(C1CC1)n1cc(-c2nccc(Nc3cc(N4CCC(F)(CO)CC4)c(C#Cc4cnn(C(F)(F)F)c4)cn3)n2)cn1 [Example 338, (1-(2-((2-(1-(Cyclopropylsulfonyl)-1H-pyrazol-4-yl)pyrimidin-4-yl)amino)-5-((1-(trifluoromethyl)-1H-pyrazol-4-yl)ethynyl)pyridin-4-yl)-4-fluoropiperidin-4-yl)methanol]	0.4	0.3	0.5	0.2	17.1	10.8	9580	42.8	> 10000	149
O=S(=O)(C1CC1)n1cc(-c2nccc(Nc3cc(N[C@H]4CC[C@@H](O)CC4)c(C#Cc4cnn(CC(F)(F)F)c4)cn3)n2)cn1 [Example 339, (1s,4s)-4-((2-((2-(1-(Cyclopropylsulfonyl)-1H-pyrazol-4-yl)pyrimidin-4-yl)amino)-5-((1-(2,2,2-trifluoroethyl)-1H-pyrazol-4-yl)ethynyl)pyridin-4-yl)amino)cyclohexan-1-ol]	0.9	1	1	0.5	7.5	3.8	29.7	4.9	> 10000	18.2
O=S(=O)(C1CC1)n1cc(-c2nccc(Nc3cc(N[C@H]4CC[C@@H](CO)CC4)c(C#Cc4cnn(CC(F)(F)F)c4)cn3)n2)cn1 [Example 340, ((1s,4s)-4-((2-((2-(1-(Cyclopropylsulfonyl)-1H-pyrazol-4-yl)pyrimidin-4-yl)amino)-5-((1-(2,2,2-trifluoroethyl)-1H-pyrazol-4-yl)ethynyl)pyridin-4-yl)amino)cyclohexyl)methanol]	2	1.6	1.6	0.7	7.3	5	40.8	10.5	> 10000	26
O=S(=O)(C1CC1)n1cc(-c2nccc(Nc3cc(N[C@H]4CCC[C@H](O)C4)c(C#Cc4cnn(CC(F)(F)F)c4)cn3)n2)cn1 [Example 341, (1S,3S)-3-((2-((2-(1-(Cyclopropylsulfonyl)-1H-pyrazol-4-yl)pyrimidin-4-yl)amino)-5-((1-(2,2,2-trifluoroethyl)-1H-pyrazol-4-yl)ethynyl)pyridin-4-yl)amino)cyclohexan-1-ol]	3.1	2.5	4	0.9	34.2	21.4	128	42.4	> 10000	163
O=S(=O)(C1CC1)n1cc(-c2nccc(Nc3cc(N4CCC(F)(CO)CC4)c(C#Cc4cnn(CC(F)(F)F)c4)cn3)n2)cn1 [Example 342, (1-(2-((2-(1-(Cyclopropylsulfonyl)-1H-pyrazol-4-yl)pyrimidin-4-yl)amino)-5-((1-(2,2,2-trifluoroethyl)-1H-pyrazol-4-yl)ethynyl)pyridin-4-yl)-4-fluoropiperidin-4-yl)methanol]	0.9	0.8	0.8	0.2	3.6	2.3	11.8	4.5	> 10000	11
O=S(=O)(C1CC1)n1cc(-c2nccc(Nc3cc(N4CCCC(O)C4)c(C#Cc4cnn(CC(F)(F)F)c4)cn3)n2)cn1 (centres unmarked) [Example 343, 1-(2-((2-(1-(Cyclopropylsulfonyl)-1H-pyrazol-4-yl)pyrimidin-4-yl)amino)-5-((1-(2,2,2-trifluoroethyl)-1H-pyrazol-4-yl)ethynyl)pyridin-4-yl)piperidin-3-ol]	1.9	2.6	3.1	0.7	19.2	11.9	68.1	19.8	> 10000	55.5
